The record followed here is patent US20260306496A1, “CDK2 INHIBITOR PYRAZOLOPYRIMIDINE COMPOUNDS” (ALEKSIA THERAPEUTICS, INC., priority 2023, published 2026).

pIC50: −log10 of the molar value. Like-named read-outs stand apart in the source and are kept apart here.

The assay concerns the target CDK2/CCNE1 (Homo sapiens, UniProt P24941). The experiment in a line: CDK2 homogeneous time-resolved fluorescence (HTRF) assay. Type of assay: biochemical. Particulars: 3 nM CDK2/CCNE1, 1 mM ATP, 50 nM ULight-eIF4E-binding protein 1 (Thr37/46) peptide, 60 min at 23° C. On the procedure:
A CDK homogeneous time-resolved fluorescence (HTRF) assay was used to assess the potency of the compounds described herein.
To an untreated 384-well microtiter plate (ProxiPlate) was added 100 nL 100× test compound in DMSO and 5 μL 2×CDK enzyme in assay buffer (50 mM HEPES, 1 mM EGTA, 10 mM MgCl2, 0.01% Tween 20, 2 mM DTT). The plate was centrifuged at 800 RPM for 1 min then incubated for 20 min at 23° C. 2.5 μL per well of 4×ATP and 2.5 μL 4×ULight™-eIF4E-binding protein 1 (Thr37/46) Peptide) substrate were added to all wells. After addition, the plates were centrifuged at 800 RPM for 1 min. The plates were incubated at 23° C. for 60 min. 5 μL per well 3×EDTA solution were added to each well to stop the reaction. 2.5 μL 7×LANCE Ultra Europium-anti-phospho-eTF4E-binding protein 1 (Thr37/46 antibody) were added to each well and the plate was centrifuged for 1 min at 800 RPM. The plate was incubated for 60 min at 23° C. Fluorescence was read at 340 nm excitation and 665 nm emission on an EnVision 2105 fluorescence reader. The final concentrations of reagents in the activity assay were 3 nM CDK2/CCNE1, 1 mM ATP, 50 nM ULight™-eIF4E-binding protein 1 (Thr37/46) Peptide substrate, 1% DMSO, 10 mM EDTA, and 2 nM LANCE Ultra Europium-anti-phospho-eTF4E-binding protein 1 (Thr37/46).
Dose-response titrations were conducted by using an 11-point, three-fold serial dilution scheme typically starting at 1 μM. Signals were reported as fluorescence units at 665 nm or the ratio of fluorescence units at 665 nm/fluorescence units at 615 nm. Signals are referred to below as “Lance signals”.
Using this assay, the IC50 values of example compounds were determined.
Background: In TR-FRET formats the signal depends on donor and acceptor labels being close together.

Where [1] appears, read: column 25-150 nM, read-out: CDK2/CCNE IC50 25-150 nM.
[2] abbreviates: read-out: CDK2/CCNE IC50 >150 nM.
The mark [3] stands for this setting: read-out: CDK2/CCNE IC50 <25 nM.

Consider `CS(=O)(=O)c1ccc(Nc2ncc3cnn(C4CCOCC4)c3n2)cc1` [Compound 3, N-(4-(methylsulfonyl)phenyl)-1-(tetrahydro-2H-pyran-4-yl)-1H-pyrazolo[3,4-d]pyrimidin-6-amine], for which the pIC50 under setting [1] was 6.82 to 7.60.

Turning to `CCN(C)[C@H]1CC[C@@H](Cn2ncc3cnc(Nc4ccc(S(C)(=O)=O)cc4)nc32)CC1` [Compound 75, 1-(((1s,4s)-4-(ethyl(methyl)amino)cyclohexyl)methyl)-N-(4-(methylsulfonyl)phenyl)-1H-pyrazolo[3,4-d]pyrimidin-6-amine], the pIC50 under setting [1] is 6.82 to 7.60.

On to `CS(=O)(=O)c1ccc(Nc2ncc3cnn(CC4CCC(N5CC[C@@H](O)C5)CC4)c3n2)cc1` (single isomer, unassigned; stereoisomer a) [Compound 73], for which, under setting [2], the pIC50 is less than 6.82.

With `Cn1cc2cc(-n3ncc4cnc(Nc5ccc(S(C)(=O)=O)cc5)nc43)ccc2n1` [Compound 82, 1-(2-methyl-2H-indazol-5-yl)-N-(4-(methylsulfonyl)phenyl)-1H-pyrazolo[3,4-d]pyrimidin-6-amine], the pIC50 under setting [2] was less than 6.82.

Take `CS(=O)(=O)c1ccc(Nc2ncc3cnn(C[C@H]4CC[C@@H](C(=O)Oc5ccc(F)cc5)CC4)c3n2)cc1` [Compound 18, 4-Fluorophenyl (1s,4s)-4-((6-((4-(methylsulfonyl)phenyl)amino)-1H-pyrazolo[3,4-d]pyrimidin-1-yl)methyl)cyclohexane-1-carboxylate]: the pIC50 under setting [2] is less than 6.82.

As to `CC#CS(=O)(=O)c1ccc(Nc2ncc3cnn(CC4CCCCC4)c3n2)cc1` [Compound 43, 1-(cyclohexylmethyl)-N-(4-(prop-1-yn-1-ylsulfonyl)phenyl)-1H-pyrazolo[3,4-d]pyrimidin-6-amine], the pIC50 under setting [2] was less than 6.82.

For `CS(=O)(=O)c1ccc(Nc2ncc3cn(-c4ccc(C#N)cc4)nc3n2)cc1` (single isomer, unassigned) [Compound 83, 4-(6-((4-(methylsulfonyl)phenyl)amino)-2H-pyrazolo[3,4-d]pyrimidin-2-yl)benzonitrile], the pIC50 under setting [1] is 6.82 to 7.60.

With `CS(=O)(=O)c1ccc(Nc2ncc3cnn(C4CCNCC4)c3n2)cc1` [Compound 14, N-(4-(methylsulfonyl)phenyl)-1-(piperidin-4-yl)-1H-pyrazolo[3,4-d]pyrimidin-6-amine], the pIC50 under setting [1] is 6.82 to 7.60.

Turning to `CS(=O)(=O)c1ccc(Nc2ncc3cnn(C4CCC5(CC4)COC5)c3n2)cc1` [Compound 41, N-(4-(methylsulfonyl)phenyl)-1-(2-oxaspiro[3.5]nonan-7-yl)-1H-pyrazolo[3,4-d]pyrimidin-6-amine], the pIC50 under setting [1] was 6.82 to 7.60.

Consider `CS(=O)(=O)c1ccc(Nc2ncc3cnn(CC4CCC(N5CC(C#N)C5)CC4)c3n2)cc1` (single isomer, unassigned; stereoisomer a) [Compound 65, 1-(4-((6-((4-(methylsulfonyl)phenyl)amino)-1H-pyrazolo[3,4-d]pyrimidin-1-yl)methyl)cyclohexyl)azetidine-3-carbonitrile (stereoisomer A)], for which the pIC50 under setting [2] was less than 6.82.

Turning to `C=C(C)S(=O)(=O)c1ccc(Nc2ncc3cnn(CC4CCCCC4)c3n2)cc1` [Compound 30, 1-(cyclohexylmethyl)-N-(4-(prop-1-en-2-ylsulfonyl)phenyl)-1H-pyrazolo[3,4-d]pyrimidin-6-amine], under setting [1], the pIC50 is 6.82 to 7.60.

Regarding `OCCc1cccc(Nc2ncc3cnn(CC4CCCCC4)c3n2)c1` [Compound 35, 2-(3-((1-(cyclohexylmethyl)-1H-pyrazolo[3,4-d]pyrimidin-6-yl)amino)phenyl)ethan-1-ol], the pIC50 under setting [3] is more than 7.60.

Turning to `CS(=O)(=O)c1ccc(Nc2ncc3cnn(C[C@H]4CC[C@@H](C=O)CC4)c3n2)cc1` [Compound 27, (1s,4s)-4-((6-((4-(methylsulfonyl)phenyl)amino)-1H-pyrazolo[3,4-d]pyrimidin-1-yl)methyl)cyclohexane-1-carbaldehyde], the pIC50 under setting [1] is 6.82 to 7.60.

As to `CS(=O)(=O)c1ccc(Nc2ncc3cnn(Cc4cccnc4)c3n2)cc1` [Compound 5, N-(4-(methylsulfonyl)phenyl)-1-(pyridine-3-ylmethyl)-1H-pyrazolo[3,4-d]pyrimidin-6-amine], under setting [2], the pIC50 was less than 6.82.

Regarding `O=Cc1ccc(Nc2ncc3cnn(CC4CCCCC4)c3n2)cc1` [Compound 25, 4-((1-(cyclohexylmethyl)-1H-pyrazolo[3,4-d]pyrimidin-6-yl)amino)benzaldehyde], under setting [1], the pIC50 was 6.82 to 7.60.

For the compound `CS(=O)(=O)N1CCC(Nc2ncc3cnn(CC4CCCCC4)c3n2)CC1` [Compound 2, 1-(cyclohexylmethyl)-N-(1-(methylsulfonyl)piperidin-4-yl)-1H-pyrazolo[3,4-d]pyrimidin-6-amine], the pIC50 under setting [3] was more than 7.60.

On to `Cn1ncc2cc(-n3ncc4cnc(Nc5ccc(S(C)(=O)=O)cc5)nc43)ccc21` [Compound 81, 1-(1-methyl-1H-indazol-5-yl)-N-(4-(methylsulfonyl)phenyl)-1H-pyrazolo[3,4-d]pyrimidin-6-amine], for which the pIC50 under setting [1] is 6.82 to 7.60.

For `C=CS(=O)(=O)c1ccc(Nc2ncc3cnn(CC4CCCCC4)c3n2)cc1F` [Compound 36, 1-(cyclohexylmethyl)-N-(3-fluoro-4-(vinylsulfonyl)phenyl)-1H-pyrazolo[3,4-d]pyrimidin-6-amine], the pIC50 under setting [1] was 6.82 to 7.60.

Consider `CS(=O)(=O)c1ccc(Nc2ncc3cnn([C@@H]4CCC[C@@H](C#N)C4)c3n2)cc1` [Compound 46, (1R,3R)-3-(6-((4-(methylsulfonyl)phenyl)amino)-1H-pyrazolo[3,4-d]pyrimidin-1-yl)cyclohexane-1-carbonitrile], for which the pIC50 under setting [3] is more than 7.60.

On to `CN(C)[C@H]1CC[C@@H](Cn2ncc3cnc(NC4CCN(S(C)(=O)=O)CC4)nc32)CC1` [Compound 56, 1-(((1S,4S)-4-(dimethylamino)cyclohexyl)methyl)-N-(1-(methylsulfonyl)piperidin-4-yl)-1H-pyrazolo[3,4-d]pyrimidin-6-amine], for which the pIC50 under setting [1] is 6.82 to 7.60.

In the case of `C=CS(=O)(=O)c1ccc(Nc2ncc3cnn(C)c3n2)cc1` [Compound 10, 1-methyl-N-(4-(vinylsulfonyl)phenyl)-1H-pyrazolo[3,4-d]pyrimidin-6-amine], the pIC50 under setting [2] was less than 6.82.

Regarding `CS(=O)(=O)c1ccc(Nc2ncc3cnn([C@@H]4CC[C@@H](C#N)C4)c3n2)cc1` [Compound 47, (1R,3R)-3-(6-((4-(methylsulfonyl)phenyl)amino)-1H-pyrazolo[3,4-d]pyrimidin-1-yl)cyclopentane-1-carbonitrile], the pIC50 under setting [2] is less than 6.82.

On to `C=CC(=O)c1ccc(Nc2ncc3cnn(CC4CCCCC4)c3n2)cc1` [Compound 44, 1-(4-((1-(cyclohexylmethyl)-1H-pyrazolo[3,4-d]pyrimidin-6-yl)amino)phenyl)prop-2-en-1-one], for which, under setting [2], the pIC50 is less than 6.82.

On to `CS(=O)(=O)c1ccc(Nc2ncc3cnn(CC4CCCCC4)c3n2)cc1C(F)(F)F` [Compound 79, 1-(cyclohexylmethyl)-N-(4-(methylsulfonyl)-3-(trifluoromethyl)phenyl)-1H-pyrazolo[3,4-d]pyrimidin-6-amine], for which the pIC50 under setting [2] was less than 6.82.

With `CS(=O)(=O)c1ccc(Nc2ncc3cnn(-c4ccc(C#N)cc4)c3n2)cc1` (single isomer, unassigned) [Compound 68, 4-(6-((4-(methylsulfonyl)phenyl)amino)-1H-pyrazolo[3,4-d]pyrimidin-1-yl)benzonitrile], under setting [1], the pIC50 was 6.82 to 7.60.

With `CS(=O)(=O)c1ccc(Nc2ncc3cnn(CC4CCC(N5CCCC5)CC4)c3n2)cc1` (single isomer, unassigned; stereoisomer a) [Compound 58, N-(4-(methylsulfonyl)phenyl)-1-((4-(pyrrolidin-1-yl)cyclohexyl)methyl)-1H-pyrazolo[3,4-d]pyrimidin-6-amine (stereoisomer A)], the pIC50 under setting [1] was 6.82 to 7.60.

With `OCCc1ccc(Nc2ncc3cnn(CC4CCCCC4)c3n2)cc1` [Compound 22, 2-(4-((1-(cyclohexylmethyl)-1H-pyrazolo[3,4-d]pyrimidin-6-yl)amino)phenyl)ethan-1-ol], the pIC50 under setting [1] was 6.82 to 7.60.

On to `C=CS(=O)(=O)c1ccc(Nc2ncc3cnn(CC4CCCCC4)c3n2)cn1` [Compound 34, 1-(cyclohexylmethyl)-N-(6-(vinylsulfonyl)pyridin-3-yl)-1H-pyrazolo[3,4-d]pyrimidin-6-amine], for which the pIC50 under setting [3] was more than 7.60.

As for `CS(=O)(=O)c1ccc(Nc2ncc3cnn(CC4CCC(N5CC[C@@H](C#N)C5)CC4)c3n2)cc1` (single isomer, unassigned; stereoisomer a) [Compound 71], under setting [2], the pIC50 is less than 6.82.
